# Assay results from US8796452B2, “Preparation of lamivudine form I” (Merck Sharp & Dohme Corp., priority 2010, dated 2014).
# Tests used:
# [1] = Equilibration of physical mixtures of Forms I, II and III in water-2-butanone solvent systems (most thermodynamically stable crystal form); type: physicochemical; settings: for water content of water-2-butanone mixtures in which Form I is thermodynamically stable: slurry equilibrated by aging
# Method: Each admixture was then equilibrated by aging at its temperature until the relative amounts of each crystalline form remained constant. At the completion of equilibration, each admixture contained a slurry of a single crystal form, or a slurry in which one crystal form dominates. This crystal form is the most thermodynamically stable at the admixture conditions of temperature and water concentration. Form. […] Similarly, Form I was determined to be thermodynamically stable in water-2-butanone mixtures at about 25° C. when the mixtures contained from 3.5 to 6.0 wt. % water, and at about 50° C. when the mixtures contained from 5.0 to 8.5 wt. % water. Additional data was collected for the boundary between form I and form III; i.e., at 20° C. […] The data are shown in a phase map of temperature versus wt. % water in FIG. 1.
# [2] = EtOH-water mixtures at 25° C.; cited from earlier work
# [3] = milling, or storage at up to 45° C. at a relative humidity of 25% to 85%; Form I made by the process of WO 2009/069013; cited from earlier work
smiles,measurement,setting,value
Nc1ccn([C@@H]2CS[C@H](CO)O2)c(=O)n1 [Form I],water content in 2-butanone at which Form I is more stable than Form III (Form I/Form III boundary),[1]; 20° C.,less than 5.7 wt % water
same,water content in 2-butanone at which Form I is more stable than Form III (Form I/Form III boundary),[1]; 30° C.,less than 6.6 wt % water
same,water content of water-2-butanone mixtures in which Form I is thermodynamically stable,[1]; about 0° C.,2.5 to 5.0 wt. % water
same,water content of water-2-butanone mixtures in which Form I is thermodynamically stable,[1]; about 25° C.,3.5 to 6.0 wt. % water
same,water content of water-2-butanone mixtures in which Form I is thermodynamically stable,[1]; about 50° C.,5.0 to 8.5 wt. % water
same,water that must be present in EtOH to convert the excess solid to Form I at equilibrium,[2],18-20%
same,conversion of Form I to Form II,[3],will not convert to Form II
